# Key:
# melanocyte dendricity = experiment: Melanocyte dendricity in skin explant cryostat sections, Anti-Melan-A immunofluorescence; type: cell-based, human; conditions: Day 5
# Experimental: (§1) Skin samples from an abdominal plastic surgery patient are placed in a specific explant survival medium BEM from Centre de Recherche Laboratoire BIO-EC (Clamart, France). Once daily, the living skin explants are irradiated with a Vilber Lourmat solar simulator RMX3W (Marne-la-Vallee, France) at a dose of 75 mJ/cm^2 within a wavelength range of 290-330 nm and a peak of 312 nm (UVB) for 80 seconds.
# (§2) Five minutes following irradiation, the skin samples are treated with a topical application of 2 mg/cm^2 of a gel formulation comprising the Phytocytol™ BLM, a stable flavonoid solution according to the present invention. The gel formulation is made according to the following procedure: Three separate gels, each containing one of baicalin, luteolin and myricetin, are prepared according to the same procedure. In a main beaker, add DI Water, Germall Plus and Carbopol Ultrez-10. When Carbopol is dispersed add ¼ of the indicated amount of Neutrol TE. Add Polycast-3 and continue mixing. Add the flavonoid solution (A, B and C) until homogenous. Add the remaining Neutrol TE and mix. The resulting Baicalin Gel, Luteolin Gel and Myricetin Gel are mixed in equal parts to form a gel having a pH of 6.91 and a viscosity of 30,500 cps (LV4@12 rpm). […]
# tyrosinase = biological target: T1, tyrosinase (Homo sapiens, UniProt P14679); experiment: Tyrosinase activity in living skin explant sections (L-DOPA method of Laidlaw and Blackberg); type: cell-based; conditions: non-irradiated skin explants, topical gel 2 mg/cm^2, Day 5
# T1 construct: Where tyrosinase is active, L-DOPA is oxidized, producing an observable black pigment in the melanocytes; from tissue; host or cells: living abdominal skin explants (melanocytes)
# T1 sequence (P14679 19-529): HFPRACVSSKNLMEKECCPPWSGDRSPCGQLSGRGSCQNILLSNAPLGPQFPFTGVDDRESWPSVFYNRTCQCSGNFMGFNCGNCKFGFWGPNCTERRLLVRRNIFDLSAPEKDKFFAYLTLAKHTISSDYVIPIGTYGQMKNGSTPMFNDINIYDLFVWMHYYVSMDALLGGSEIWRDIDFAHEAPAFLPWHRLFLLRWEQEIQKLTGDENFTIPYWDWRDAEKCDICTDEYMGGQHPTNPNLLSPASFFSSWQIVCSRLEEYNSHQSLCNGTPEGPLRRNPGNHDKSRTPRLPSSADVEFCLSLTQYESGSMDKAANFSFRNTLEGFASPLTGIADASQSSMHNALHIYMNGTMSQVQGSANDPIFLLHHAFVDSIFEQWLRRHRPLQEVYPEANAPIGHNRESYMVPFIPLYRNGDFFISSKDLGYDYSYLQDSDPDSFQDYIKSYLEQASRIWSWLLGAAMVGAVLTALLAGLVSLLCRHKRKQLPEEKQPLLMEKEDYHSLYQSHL
# [1] = system: melanin within the melanocytes; experiment: Melanin deposits in melanocytes of skin explants, Fontana-Masson silver stain; type: cell-based, human; conditions: Day 5
# Experimental: as §1, §2
structure (smiles),measurement,setting,value
OC[C@H]1O[C@@H](Oc2ccc(O)cc2)[C@H](O)[C@@H](O)[C@@H]1O [arbutin],level of melanocyte dendricity,"melanocyte dendricity; after UVB irradiation, skin explants",low level of dendricity
same,level of melanocyte dendricity,melanocyte dendricity; non-UVB irradiated skin explants,low level of dendricity
same,level of tyrosinase activity,tyrosinase,substantially greater compared to the arbutin-treated samples
same,melanin deposits,[1]; absence of UVB irradiation,low levels of melanin deposits
same,melanin deposits,[1]; after exposure to UVB irradiation,An increase in melanin deposits is not observed
